Values quoted from earlier work, collected in patent US6174513A, “Stabilization of peptides and proteins for radiopharmaceutical use” (priority 1998, dated 2001).

Tested on: somatostatin receptors in a variety of human tumors

Binding affinity to somatostatin receptors: very high binding affinity
SMILES: C[C@@H](O)[C@@H]1NC(=O)[C@H](CCCCN)NC(=O)[C@@H](Cc2c[nH]c3ccccc23)NC(=O)[C@H](Cc2ccccc2)NC(=O)[C@@H](NC(=O)[C@H](N)Cc2ccccc2)CSSC[C@@H](C(=O)N[C@H](CO)[C@@H](C)O)NC1=O [Octreotide]
